From patent EP2408450B1, “ALPHA-(N-SULFONAMIDO)ACETAMIDE COMPOUND AS AN INHIBITOR OF BETA AMYLOID PEPTIDE PRODUCTION” (Bristol-Myers Squibb Company, priority 2009, dated 2010)

Legend:
[1] = Metabolic stability in liver microsomes (human); type: in vitro ADME
Description: Mouse, rat, dog, human, and cynomolgus monkey liver microsomes were obtained from BD Gentest (Woburn, MA). The lot numbers were 13 (mouse), 8 (rat), 8 (dog), 19 and 26 (human), and 3 (cynomolgus monkey). […] The reaction, conducted in triplicate, was initiated by the addition of NADPH followed by incubation at 37°C for 50 minutes. Aliquots of samples (0.25 mL) were taken at 0, 5, 10, 20, 30, 40 and 50 minutes and the reaction was quenched by the addition of 3 volumes of acetonitrile. […] The reaction, conducted in triplicate, was initiated by the addition of NADPH followed by incubation at 37 °C for 50 minutes. Aliquots of samples (0.25 mL) were taken at 0, 5, 10, 20, 30, 40 and 50 minutes and the reaction was quenched by the addition of 3 volumes of acetonitrile. […] The reaction, conducted in duplicate, was initiated by the addition of NADPH followed by incubation at 37°C for 40 minutes. Aliquots of samples (0.25 mL) were taken at 0, 5, 10, 15, 20, 30 and 40 minutes and the reaction was quenched by the addition of 3 volumes of acetonitrile. For all studies, samples were analyzed immediately by an LC/MS method.

CYP3A4 mRNA = experiment: Induction of CYP3A4 mRNA in Fa2N-4 cells; conditions: Fa2N-4 hepatocytes, 3 days
Description: [[2-fluoro-4-(1,2,4-oxadiazol-3-yl)phenyl]methyl]amino]-5,5,5-trifluoropentanamide to induce CYP3A4 mRNA was evaluated in vitro using the Fa2N-4 cell line. The Fa2N-4 cell is an immortalized human hepatocyte line that was created using the Simian virus 40 (SV40) T antigen as the immortalizing gene, while retaining basal expression and inducibility of several CYP isoforms, including CYP3A4. Fa2N-4 cells and MFE Support Media F were provided by XenoTech, LLC (Lenexa, Kansas).
Upon the receipt of the cells, the media were changed and the cells maintained overnight in a humidified, CO2-supplied incubator. After this adaptation period, the cells were examined under a light microscope and a determination was made as to whether the cells were morphologically normal and suitable for use. During the treatment period, the cells were visually inspected on a daily basis; cellular morphology, confluency, and signs of toxicity due to the test article were documented as necessary. […] Rifampicin (10 µM), a prototypical CYP3A4 inducer, was used as the positive control. Fa2N-4 cells were exposed to the test articles for a total of 3 days. The culture medium was replaced daily with fresh medium containing the test articles. After a total of ~72 hours of exposure, medium was aspirated and the cells washed once with warm phosphate buffered saline solution before adding the cell lysis buffer (Qiagen, Valencia, CA).

brain Aβ40 = experiment: Rat brain Aβ40 assay (252-TSD ELISA); type: in vivo; conditions: for Day 7 5hr Brain Aβ40 (%Veh): 7 days; for Terminal Brain Aβ40 (%Veh) 5hr: 5 hours after the fourth dose; for Terminal Brain Aβ40 (%Veh) 12hr: 12 hours after the third dose; for Terminal Brain Aβ40 (%Veh) 24hr: 24 hours after the third dose; for brain Aβ40, % of baseline Aβ40 values: 2 to 24 hours post dosing
Description: All procedures were done in concordance with ACUC guidelines. […] Plasma was obtained after centrifugation. […] CSF samples were centrifuged to remove cells or debris prior to dilution at 1:2 in 4% BSA and frozen for subsequent analysis. […] Rat brain (half a hemisphere) was homogenized using a polytron at 4 mL/g in PBS, pH 7.8, 2% CHAPS, complete protease inhibitors (Roche). […] White Microlite II ELISA plates (Thermo Electron) were incubated with 50 µg/mL TSD9S3.2 antibody in PBS for 1 hour at 37°C. Plates were blocked with 200 µL 5% bovine serum albumin (BSA; weight/volume prepared in PBS) for 2 hours at room temperature on a plate shaker and then washed 5 times with 500 µL/well of PBS, 0.05% Tween-20. Clarified brain homogenates were loaded in 6 replicates of 50 µL per well and incubated for 1 hour at room temperature. […] Samples were normalized to a brain homogenate reference placed on each plate.

[2] = rat, Study No. 2, 100 mg/kg/day

NC(=O)[C@@H](CCC(F)(F)F)N(Cc1ccc(-c2ncon2)cc1F)S(=O)(=O)c1ccc(Cl)cc1 [(2R)-2-[[(4-chlorophenyl)sulfonyl][[2-fluoro-4-(1,2,4-oxadiazol-3-yl)phenyl]methyl]amino]-5,5,5-trifluoropentanamide]
rate of in vitro metabolism ([1]; human microsomes, NADPH-fortified, 1 µM): 32 pmol/min/mg protein
predicted in vivo (serum) clearance ([1]; human, scaled from liver microsome rate): ~8 mL/min/kg
increase in CYP3A4 mRNA expression over the vehicle control (CYP3A4 mRNA; highest concentration tested (20 µM)): 2.6 fold
induction of CYP3A4 (CYP3A4 mRNA; lower concentrations (≤ 8.0 µM)): ≤ 2.0 fold
Day 7 5hr Brain Aβ40 (%Veh) (brain Aβ40; Rat Study No. 3, 30 mg/kg/day): 13%Veh
Day 7 5hr Brain Aβ40 (%Veh) (brain Aβ40; Rat Study No. 3, 300 mg/kg/day): 13%Veh
ED50 (brain Aβ40; acute rat studies, read-out: ED50 for reduction of brain Aβ40): 1 to 10 mg/kg
Brain % Aβ AUC Reduction (brain Aβ40; rat, Study No. 2, 3 mg/kg/day): 57%
Terminal Brain Aβ40 (%Veh) 5hr (brain Aβ40; rat, Study No. 2, 3 mg/kg/day): 16%Veh
Terminal Brain Aβ40 (%Veh) 12hr (brain Aβ40; rat, Study No. 2, 3 mg/kg/day): 34%Veh
Terminal Brain Aβ40 (%Veh) 24hr (brain Aβ40; rat, Study No. 2, 3 mg/kg/day): 94%Veh
Brain % Aβ AUC Reduction (brain Aβ40; rat, Study No. 2, 10 mg/kg/day): 91%
Terminal Brain Aβ40 (%Veh) 5hr (brain Aβ40; rat, Study No. 2, 10 mg/kg/day): 6%Veh
Terminal Brain Aβ40 (%Veh) 12hr (brain Aβ40; rat, Study No. 2, 10 mg/kg/day): 4%Veh
Terminal Brain Aβ40 (%Veh) 24hr (brain Aβ40; rat, Study No. 2, 10 mg/kg/day): 23%Veh
Brain % Aβ AUC Reduction (brain Aβ40; rat, Study No. 2, 30 mg/kg/day): 93%
Terminal Brain Aβ40 (%Veh) 5hr (brain Aβ40; rat, Study No. 2, 30 mg/kg/day): 6%Veh
Terminal Brain Aβ40 (%Veh) 12hr (brain Aβ40; rat, Study No. 2, 30 mg/kg/day): 4%Veh
Terminal Brain Aβ40 (%Veh) 24hr (brain Aβ40; rat, Study No. 2, 30 mg/kg/day): 15%Veh
Brain % Aβ AUC Reduction (brain Aβ40; [2]): 96%
Terminal Brain Aβ40 (%Veh) 5hr (brain Aβ40; [2]): 3%Veh
Terminal Brain Aβ40 (%Veh) 12hr (brain Aβ40; [2]): 3%Veh
Terminal Brain Aβ40 (%Veh) 24hr (brain Aβ40; [2]): 7%Veh
Brain % Aβ AUC Reduction (brain Aβ40; rat, Study No.1, 3 mg/kg/day): 49%
Terminal Brain Aβ40 (%Veh) 5hr (brain Aβ40; rat, Study No.1, 3 mg/kg/day): 39%Veh
Terminal Brain Aβ40 (%Veh) 12hr (brain Aβ40; rat, Study No.1, 3 mg/kg/day): 35%Veh
Terminal Brain Aβ40 (%Veh) 24hr (brain Aβ40; rat, Study No.1, 3 mg/kg/day): 92%Veh
Brain % Aβ AUC Reduction (brain Aβ40; rat, Study No.1, 10 mg/kg/day): 85%
Terminal Brain Aβ40 (%Veh) 5hr (brain Aβ40; rat, Study No.1, 10 mg/kg/day): 12%Veh
Terminal Brain Aβ40 (%Veh) 12hr (brain Aβ40; rat, Study No.1, 10 mg/kg/day): 9%Veh
Terminal Brain Aβ40 (%Veh) 24hr (brain Aβ40; rat, Study No.1, 10 mg/kg/day): 28%Veh
Brain % Aβ AUC Reduction (brain Aβ40; rat, Study No.1, 30 mg/kg/day): 90%
Terminal Brain Aβ40 (%Veh) 5hr (brain Aβ40; rat, Study No.1, 30 mg/kg/day): 8%Veh
Terminal Brain Aβ40 (%Veh) 12hr (brain Aβ40; rat, Study No.1, 30 mg/kg/day): 9%Veh
Terminal Brain Aβ40 (%Veh) 24hr (brain Aβ40; rat, Study No.1, 30 mg/kg/day): 13%Veh
change in brain Aβ40 (brain Aβ40; rat, single dose 1 mg/kg): did not cause a statistically significant change
brain Aβ40, % of baseline Aβ40 values (brain Aβ40; rat, single dose 10 mg/kg): less than 25%
brain Aβ40, % of vehicle control (brain Aβ40; rat, single dose 30 mg/kg): 16%
brain Aβ40, % of baseline Aβ40 values (brain Aβ40; rat, single dose 100 mg/kg): less than 25%
Brain Aβ40 levels at termination, % of the vehicle control (brain Aβ40; rats, 30 or 300 mg/kg/day, 5 hours post dose): 13%
Brain Aβ40 AUC reduction (brain Aβ40; subchronic rat studies, doses of 10 mg/kg/day or higher): greater than 85%
